Assays:
[1] = system: form-deprivation myopia (FDM) in chicks; test: Unilateral form-deprivation myopia (FDM) in chicks, four intravitreal injections every alternate day, 7-day diffuser lens treatment; assay type: in vivo, White Leghorn chicks (Gallus gallus); conditions: for axial length, mean interocular difference ± SD / refractive error (myopic progression), mean interocular difference ± SD / increase in choroidal thickness compared to the vehicle group / choroidal thickness, mean interocular difference ± SD: after 7-day treatment; for axial length, mean interocular difference ± SD: vehicle 0.75±0.19 mm; for refractive error (myopic progression), mean interocular difference ± SD: vehicle −10.0±2.56 D; for choroidal thickness, mean interocular difference ± SD: vehicle 43.02±8.87 μm
Method: XMU-MP-1, known for its reversible and selective inhibition of MST1/2 (upstream to YAP/TAZ), leading to a significant increase in the activity of the Hippo pathway effector YAP, undergoes testing in a dose-dependent manner for its impact on form-deprivation myopia (FDM) in chicks.
White Leghorn chicks (Gallus gallus) from specific pathogen-free eggs (SPF, Jinan, China) are raised in standard cages with adequate food and water, maintaining a temperature of 25° C. and a 12 h:12 h light/dark cycle. The experimental period spans from postnatal 7 days (PN 7) to 14 days (PN 14). A unilateral FDM model is established using a published protocol, involving four intravitreal injections performed every alternate day. Following the first injection, diffuser lenses are attached to the right eye, with lenses covering only the XMU-MP-1 injected eye (unilateral FDM). XMU-MP- 1, dissolved in 10% DMSO with 90% Corn oil, is injected monocularly using a 0.3 mm (30 G)×8 mm needle into the vitreous through the skin, sclera, choroid, and retina close to the margin of the upper orbit. Contralateral eyes receive no lens treatment. Four concentrations of XMU-MP-1 (0.02, 0.2, 2, and 20 mmol/L) are selected for evaluation.
Animals are randomly assigned to five groups, encompassing the FDM with vehicle treatment group (vehicle group, 10% DMSO+90% Corn oil, n=14), FDM with 0.02 mmol/L XMU-MP-1 treatment group (XMU-MP-1, 0.02 mmol/L group, n=5), FDM with 0.2 mmol/L XMU-MP-1 treatment group (XMU-MP-1, 0.2 mmol/L group, n=5), FDM with 2 mmol/L XMU-MP-1 treatment group (XMU-MP-1, 2 mmol/L group, n=13), and FDM with 20 mmol/L XMU-MP-1 treatment group (XMU-MP-1, 20 mmol/L group, n=14).
Refractive errors are assessed using a streak retinoscope, and ocular parameters are measured with a high-frequency A-scan ultrasound system equipped with a 30 MHz transducer (Panametrics, Inc., Waltham, MA) before and after treatment. The spherical equivalent (S.E.) is derived from the refractive status (S.E.=spherical power+½ cylindrical power), and axial length is defined from the front of the cornea to the back of the vitreous chamber.
For statistical analysis, after the 7-day lens treatment period, interocular differences (the difference between the diffuser-treated eyes and the contralateral fellow eyes) are calculated for six ocular parameters (refractive error, anterior chamber depth, lens thickness, vitreous chamber depth (FIG. 4B), axial length, and choroidal thickness). Mean interocular differences±SD are presented, and the significance of the dose-effect is analyzed using ANOVA. Post hoc testing (Dunnett's method) is employed where appropriate, with significance levels denoted as follows: ns, not significant; *, P<0.05; **, P<0.01; ****, P<0.0001.

[2] = Signs of toxicity in animal models; assay type: in vivo
[3] = 2 mmol/L XMU-MP-1 intravitreal, n=13, P<0.001
[4] = 20 mmol/L XMU-MP-1 intravitreal, n=14, P<0.0001

## CN1C(=O)c2sccc2N(C)c2nc(Nc3ccc(S(N)(=O)=O)cc3)ncc21 [XMU-MP-1]
[1]; 0.02 mmol/L XMU-MP-1 intravitreal, n=5
  axial length, mean interocular difference ± SD: 0.73±0.13 mm
[1]; 0.2 mmol/L XMU-MP-1 intravitreal, n=5, P<0.001
  axial length, mean interocular difference ± SD: 0.41±0.24 mm
[1]; 0.2 mmol/L XMU-MP-1 intravitreal, n=5, P<0.01
  refractive error (myopic progression), mean interocular difference ± SD: −6.05±2.97 D
[1]; 0.2 mmol/L group
  inhibition of myopia, based on refractive error and axial length data: about 40%
[1]; 2 mmol/L XMU-MP-1 intravitreal
  increase in choroidal thickness compared to the vehicle group: about 50%
[1]; [3]
  axial length, mean interocular difference ± SD: 0.36±0.20 mm
  choroidal thickness, mean interocular difference ± SD: 22.07±15.13 μm
[1]; 2 mmol/L XMU-MP-1 intravitreal, n=13, P<0.0001
  refractive error (myopic progression), mean interocular difference ± SD: −4.69±2.75 D
[1]; 2 mmol/L group
  inhibition of myopia, based on refractive error and axial length data: about 53%
[1]; 20 mmol/L XMU-MP-1 intravitreal
  increase in choroidal thickness compared to the vehicle group: ~70%
[1]; [4]
  axial length, mean interocular difference ± SD: 0.27±0.22 mm
  choroidal thickness, mean interocular difference ± SD: 12.83±17.96 μm
  refractive error (myopic progression), mean interocular difference ± SD: −3.51±2.89 D
[1]; highest dose tested (200 nmol)
  suppression of myopia development: about 65%
[1]; intravitreal injection
  inhibition of lens-induced myopia: robustly inhibits lens-induced myopia
[1]; intravitreal injection, 0.02-20 mmol/L, ANOVA significant dose-response effect (p<0.0001)
  suppression of myopia progression, dose dependence: can suppress myopia progression through intravitreal injection in a dose-dependent manner
[2]
  signs of toxicity: no discernible signs of toxicity

Reference: patent publication US20260165953A1, “THE HIPPO PATHWAY AS A PHARMACOLOGIC TARGET FOR TREATING REFRACTIVE DISORDERS” (Centre for Eye and Vision Research Limited, priority 2022, published 2026)
